Test results reported in patent publication US10995068B2, “Synthetic sphingolipid-like molecules, drugs, methods of their synthesis and methods of treatment” (The Regents of the University of California, priority 2015, dated 2021).

How the values were obtained:
Type in all cases: cell-based
[1] = tested on: mouse prostate cancer epithelial cells (mPCE); assay: LDL receptor, LDL uptake and lipid droplets in mPCE cells
Procedure: To determine the sensitivity, SH-BC-893 was evaluated in a validated genetically-engineered mouse model for invasive castration-resistant prostate cancer that lacks p53 and PTEN expression exclusively in the prostate (pDKO) (Wu X, et al. Am J Clin Exp Urol. 2014; 2(2):111-20; Schwarzenböck S, et al. Theranostics. 2012; 2(3):318-330; Chen Z, et al. Nature. 2005; 436(7051):725-730; the disclosures of which are herein incorporated by reference). […] SH-BC-893, however, still produced a phenotype consistent with starvation as the bound NADH fraction increased and cell permeant nutrients protected mPCE cells from death (FIGS. 65A and 65C). Prostate cancer cells depend on exogenous LDL for growth and survival. […]
(§1) Light Microscopy: Brightfield and epifluorescence microscopy were conducted using a Nikon TE2000-S fluorescence microscope; confocal microscopy was performed on a Zeiss LSM780 confocal microscope or Nikon Eclipse Ti spinning disk confocal microscope. […] Co-localization was determined using JACoP plugin in ImageJ software. Macropinocytosis was measured after 16 h incubation in serum-free DMEM. p53−/−; LSL-K-RasG12D MEFs before (LSL) or after (KRasG12D) introduction of Cre were serum starved for 16 h and then treated with macropinocytosis inhibitor 5-(N-ethyl-N-isopropyl) amiloride (EIPA, 75 μM) for 1 h or SH-BC-893 for 6 h. […]

[2] = tested on: 4F2hc, ASCT2, GLUT1; assay: Nutrient transporter internalization; conditions: CD147 not affected
Description: As a proof of principle concerning the ability of C-aryl azacyclic constrained sphingolipid-like compounds, compound SH-BC-893 was examined thoroughly in a series of exemplary embodiment experiments. (The chemical structure of SH-BC-893, also referred to in the in this application as compound 5 and compound 104, and of FTY720 are shown in FIG. 51A). Results are provided below, along with a number of correlated data tables and graphs (Tables 7 and 8 and FIGS. 51-67). In embodiments, SH-BC-893 induces nutrient transporter loss and mimics starvation without the S1P receptor associated toxicity of FTY720. SH-BC-893 lacks the sphingosine-1-phosphate (S1P) receptor activity that prevents the use of FTY720 in cancer patients (FIG. 51B). […]
as §1

[3] = tested on: PI(3,5)P2 levels in HeLa cells; assay: Measurement of PI(3,5)P2 by HPLC
Procedure: In certain embodiments of the invention, sphingolipid-like molecules mis-localize PIKfyve preventing its association with TRMPL1 and inducing vacuolation, instead of inhibiting PIKfyve kinase activity. While PIKfyve localized to the limiting membrane of YM201636-induced vacuoles as expected, PIKfyve was present in clumps between vacuoles in FTY720-treated cells (FIGS. 57C and 56F).
Measurement of PI(3,5)P2 by HPLC. HeLa cells were rinsed twice with PBS and incubated in for 48 h in inositol labeling medium (inositol-free DMEM containing 5 μg/ml transferrin, 5 μg/ml insulin, 10% dialyzed FCS, 20 mM HEPES, 2 mM L-glutamine), and 10 μCi/ml myo-[2-^3H]inositol. Cells were lysed with 4.5% perchloric acid, scraped, and centrifuged at 14,000×g for 10 min at 4° C. Cell pellets were rinsed with 100 mM EDTA, centrifuged again, and re-suspended in 50 μl of water. To deacylate lipids, 1 ml methanol/40% methylamine/butanol (45.7% methanol, 10.7% methylamine, 11.4% butanol) were added and then the mixture was transferred to a glass vial and incubated at 55° C. for 1 h. After cooling to room temperature, samples were vacuum dried and re-suspended in 0.5 ml water. […] The aqueous phase was vacuum dried and re-suspended in 75 μl water and 50 μl of each sample was analyzed by HPLC. PI(3,5)P2 levels were expressed as a percentage of total phosphatidylinositol.

Compound: CCCCCCCCc1ccc([C@H]2CCN[C@@H]2CO)cc1.Cl [Compound 5, (2S,3R)-2-(hydroxymethyl)-3-(4-octylphenyl)Pyrrolidinium chloride]
- surface levels of the LDL receptor (LDLr), LDL uptake, and lipid droplet accumulation [1]: dramatically decreased
- internalization of amino acid and glucose transporters (4F2hc, ASCT2, GLUT1) [2]: triggers the selective internalization

Compound: CCCCCCCCc1ccc(CCC(N)(CO)CO)cc1.Cl [FTY720, 2-Amino-2-[2-(4-octylphenyl)ethyl]propane 1,3-diol hydrochloride, reference compound]
- PI(3,5)P2 levels [3]: did not inhibit PIKfyve kinase activity or reduce PI(3,5)P2 levels
